Data published in publication PMC4741889, “Ligand-based chemoinformatic discovery of a novel small molecule inhibitor targeting CDC25 dual specificity phosphatases and displaying in vitro efficacy against melanoma cells” (Oncotarget, 2015).

How the values were obtained:
CDC25C = target: T1, CDC25C (Homo sapiens, UniProt P30307); assay: Ki from OMFP hydrolysis kinetics (Lineweaver-Burk), CDC25C; format: biochemical; conditions: 40 nM CDC25C, 1–25 μM OMFP; mean ± S.E.; read-out: Ki CDC25C
T1 construct: Recombinant forms of the catalytic domains of CDC25A, -B and -C were obtained through the vectors pET28a-CDC25A-cd, pET28a-CDC25B-cd and pET28a-CDC25C-cd; made in house
T1 sequence (P30307 321-428 limits assumed): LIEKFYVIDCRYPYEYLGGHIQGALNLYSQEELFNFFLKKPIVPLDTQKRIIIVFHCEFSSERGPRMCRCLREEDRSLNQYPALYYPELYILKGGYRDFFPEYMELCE
Method: To measure the inhibition constant (Ki) of the recombinant forms of CDC25A, -B and -C towards the various inhibitors, the affinity of the different forms of CDC25 towards OMFP was measured either in the absence or in the presence of fixed concentrations of the various inhibitors. The reaction mixture contained 20 nM CDC25A, or 10 nM CDC25B, or 40 nM CDC25C, and different concentrations of the various inhibitors in 500 μL final volume of 20 mM Tris-HCl, pH 7.8, 1 mM DTT. DMSO was used as vehicle control. […] The corresponding Lineweaver-Burk plots allowed the calculation of the KM for OMFP and of the Vmax of OMFP hydrolysis, expressed as a.u./minmax. […] The Ki values were obtained from the decrease of a.u./minmax in the presence of the inhibitor, according to the equation a.u./mimmax’ = a.u./mimmax/{1 + ([I]/Ki)}, where a.u./mimmax’ represents the Vmax measured in the presence of the concentration [I] of the inhibitor. The Ki values were obtained from at least three independent experiments and reported as mean ± S.E.

A2058 cells = assay: Cell cycle analysis by PI flow cytometry, A2058 cells; format: cell-based, human; conditions: A2058, 100 μM
Method: (§1) As CDC25 phosphatases are key cell cycle regulators, the effect of 7 on cell cycle progression was investigated in detail. To this aim, asynchronously growing A2058 and SAN cells were treated at different times with 100 μM compound 7, and then cell cycle analysis was cytofluorimetrically monitored after propidium iodide (PI) incorporation. […] After 16-h incubation with […], cells were mainly and almost equally distributed in G0/G1 and G2/M phases (the ratio between them being 0.96), whereas the cellular population in the S phase was essentially undetectable. […] A similar general picture emerged from the effect of compound 7 on cell cycle progression of SAN cells (Supplementary Figure S3).
(§2) Cells were seeded into 6-well plates at 3 × 10^5 cells/well for 24 h at 37°C; after the addition of 100 μM 7 or 0.5% DMSO as a vehicle control, the incubation of treated cells continued for 16 or 24 h. After each treatment, cells were harvested with trypsin, centrifuged and the pellet was resuspended in phosphate-buffered saline (PBS). For cell cycle analysis, cells were fixed with 70% (v/v) cold ethanol and stored at −20°C for 1 h. […] After incubation at 4°C for 30 min, cells were analyzed with a FACScan flow cytometer (Becton Dickinson) for evaluating the distribution in cell cycle phases or the presence of nuclei with a DNA content lower than the diploid.

SAN cells = assay: Cell cycle analysis by PI flow cytometry, SAN cells; format: cell-based, human; conditions: 100 μM, 16 and 24 h
Method: as §1, §2

CDC25A protein levels = assay: Western blotting of CDC25A protein levels in A2058 cells; format: cell-based, human; conditions: A2058, 100 μM, 2-16 h
Method: To better investigate the effect of this inhibitor at the molecular level, we evaluated if the treatment of A2058 cells with 7 affected also the protein levels of the three CDC25 forms. […] On the other hand, the protein levels of CDC25B were unaffected by treatment of A2058 cells with 7 up to 16 h.
A2058 cells were seeded into 6-well-plates (3 × 10^5 cells/plate) for 24 h at 37°C and then treated at different times with 100 μM compound 7 or 0.5% DMSO. After treatment, cells were harvested, washed with PBS and then lysed in ice-cold modified radio immunoprecipitation assay (RIPA) buffer (50 mM Tris-HCl, pH 7.4, 150 mM NaCl, 1% Nonidet P-40, 0.25% sodium deoxycholate, 1 mM Na3VO4 and 1 mM NaF), supplemented with protease inhibitors and incubated for 30 min on ice. The supernatant obtained after centrifugation at 12,000 rpm for 30 min at 4°C constituted the total protein extract. The protein concentration was determined by the method of Bradford, using bovine serum albumin (BSA) as standard. Equal amounts of total protein extracts were used for Western blot analysis. […] Membranes were then analysed by an enhanced chemiluminescence reaction, using Super Signal West Pico kit (Pierce) according to manufacturer's instruction; signals were visualized by autoradiography.

pAkt protein levels = assay: Western blotting of pAkt (Ser473) in A2058 cells; format: cell-based, human; conditions: A2058, 100 μM, 2 and 4 h
Method: The molecular mechanisms that regulate the cytotoxic potential of 7 in melanoma cells were further investigated through the evaluation of the activation state of protein kinase B (pAkt), one of the key proteins involved in the control and regulation of cell survival. To this aim, the protein levels of pAkt have been analyzed after 2- and 4-h incubation of A2058 cells with 7. […] It is known that Akt regulates the process of cell survival by phosphorylating different substrates, directly or indirectly involved in the apoptotic program. One of these targets is p53, a protein with a tumor-suppressor activity that regulates the cell cycle, as well as the expression of several genes involved in the apoptosis. […]
A2058 cells were seeded into 6-well-plates (3 × 10^5 cells/plate) for 24 h at 37°C and then treated at different times with 100 μM compound 7 or 0.5% DMSO. […] The protein concentration was determined by the method of Bradford, using bovine serum albumin (BSA) as standard. […] Membranes were then analysed by an enhanced chemiluminescence reaction, using Super Signal West Pico kit (Pierce) according to manufacturer's instruction; signals were visualized by autoradiography.

Structure (SMILES): O=C(O)C1CCCCC1c1c2ccc(=O)cc-2oc2cc(O)ccc12 (stereo not drawn) [Compound 7, 2-(6-hydroxy-3-oxo-3H-xanthen-9-yl)cyclohexanecarboxylic acid]
- Ki (CDC25C): 3.1 ± 0.22 µM
- ratio between G0/G1 and G2/M (A2058 cells; 16 h, vehicle 0.96): 0.38
- ratio between G0/G1 and G2/M (A2058 cells; 24 h, untreated 1.23): 0.45
- cell distribution in the G2/M phase (SAN cells): increase of cell distribution in the G2/M phase
- CDC25A protein levels (CDC25A protein levels): early reduction of the CDC25A protein levels up to 4 h
- protein level of pAkt with respect to total Akt (pAkt protein levels): early reduction of the protein level of pAkt
